Data set [1] is described as follows: Liver S9 stability (human liver S9). Type of data set: in vitro ADME. The note with it: for half-life at 1 µM: human liver S9, 37° C.; for Formation of EFdA at 30 min: human liver S9, 30 min. How it is done:
Add 600 μL/well stop solution (cold in 4° C., including 100 ng/mL Tolbutamide/100 ng/mL Labetalol) to terminate the TO plate, then put it on ice. Dispense 840 μL/well S9 solution to 96-well plate as reservoir according to plate map. Then add 100 μL/well to every plate by Apricot. Incubate S9 solution and compound at 37° C. for about 10 min except NCF60 and TO. After adding S9 solution and 98μ LPB buffer to NCF60, incubate at 37° C. without pre-warming, start timer 1. After 60 min, add 600 μL/well stop solution to terminate the reaction. After pre-warming, dispense 760 μL/well cofactor solution to 96-well plate as reservoir according to plate map. Then add 98 μL/well to every plate by Apricot to start reaction. Incubate at 37° C., start timer 2, Add 600 μL/well stop solution (cold in 4° C., including 100 ng/mL Tolbutamide and Labetalol) to terminate the reaction. Samples are centrifuged at 4000 rpm for 20 min. While centrifuging, load 8× new 96-well plate with 300 μL HPLC water, then transfer 100 μL supernatant, mix with water for LC/MS/MS, transferred to Bioanalytical Services for LC-MS/MS analysis. Use equation of first order kinetics [NT]1/2 and CL: Equation of first order kinetics: [formula] [formula] [formula] [formula]

The nature of data set [2]: Plasma stability (human plasma). The note with it: for Formation of EFdA at 30 min: human plasma; for half-life at 2 µM: human, pH 7.4. The protocol: The pooled frozen plasma was thawed in a water bath at 37° C. prior to experiment. Plasma was centrifuged at 4000 rpm for 5 min and the clots were removed if any. The pH will be adjusted to 7.4±0.1 if required.
Preparation of test compounds and positive control (propantheline bromide): 1 mM intermediate solution was prepared by diluting 10 μL of the stock solution with 90 μL MeOH; 1 mM intermediate of positive control Propantheline was prepared by diluting 10 μL of the stock solution with 90 μL ultrapure water. 100 μM dosing solution was prepared by diluting 20 μL of the intermediate solution (1 mM) with 180 μL MeOH. 98 μL of blank plasma was spiked with 2 μL of dosing solution (100 μM) to achieve 2 μM of the final concentration in duplicate and samples were incubated at 37° C. in a water bath. […] Centrifuged sample plates at 4,000 rpm for 10 min. An aliquot of supernatant (100 μL) was transferred from each well to another plates.

Bounds are passed on as bounds.

For the molecule `C#C[C@@]12COC(=O)OCCCCCC(=O)OC1C[C@H](n1cnc3c(N)nc(F)nc31)O2` (stereo in doubt) [Compound 29, (1R,13R,15R)-15-(6-amino-2-fluoro-9H-purin-9-yl)-13-ethynyl-2,9,11,14-tetraoxabicyclo[11.3.0]hexadecane-3,10-dione], the half-life – broadly, the time in which the quantity being followed falls by half – at 1 µM in data set [1] was less than 50 min. The “Formation of EFdA at 30 min” value in data set [1] and in data set [2] was “Yes” throughout. The molecule also yielded a half-life at 2 µM in data set [2] (pooled plasma) of less than 50 min.
Turning to `C#C[C@@]12COC(=O)OCC3CCCCC3COC(=O)OC1C[C@H](n1cnc3c(N)nc(F)nc31)O2` (stereo in doubt) [Compound 30, (6R,8R,10R)-8-(6-amino-2-fluoro-9H-purin-9-yl)-10-ethynyl-3,5,9,12,14-pentaoxatricyclo[14.4.0.06,10]icosane-4,13-dione], the half-life at 1 µM in data set [1] was less than 50 min. Also, the “Formation of EFdA at 30 min” value in data set [1] is reported as “Yes”; in data set [2], “No”. The molecule also displayed a half-life at 2 µM in data set [2] (pooled plasma) of 50 to 200 min.
As to `C#C[C@]1(COC(=O)CC23CC4CC(CC(C4)C2)C3)O[C@@H](n2cnc3c(N)nc(F)nc32)C[C@@H]1O` [Compound 1, ((2R,3S,5R)-5-(6-amino-2-fluoro-9H-purin-9-yl)-2-ethynyl-3-hydroxy-tetrahydrofuran-2-yl)methyl 2-(1-adamantyl) acetate], the half-life at 1 µM in data set [1] is less than 50 min. In addition, the “Formation of EFdA at 30 min” value in data set [1] is recorded as “Yes”; in data set [2], “No”. Further, the half-life at 2 µM in data set [2] (pooled plasma) was more than 200 min.
For the molecule `C#C[C@]1(COC(=O)C23CC4CC(CC(C4)C2)C3)O[C@@H](n2cnc3c(N)nc(F)nc32)C[C@@H]1O` [Compound 3, ((2R, 3S, 5R)-5-(6-amino-2-fluoro-9H-purin-9-yl)-2-ethynyl-3-hydroxy-tetrahydrofuran-2-yl)methyl adamantane-1-carboxylate], in data set [1], the half-life at 1 µM was less than 50 min and the “Formation of EFdA at 30 min” value is listed as “Yes”. In addition, the “Formation of EFdA at 30 min” value in data set [2] is recorded as “No”. In data set [2] (pooled plasma), this molecule displayed a half-life at 2 µM of less than 50 min.
Consider `C#C[C@]1(CO)O[C@@H](n2cnc3c(N)nc(F)nc32)C[C@@H]1OC(=O)OCCCC12CC3CC(CC(C3)C1)C2` [Compound 11, ((2R,3S,5R)-5-(6-amino-2-fluoro-9H-purin-9-yl)-2-ethynyl-2-(hydroxymethyl)tetrahydrofuran-3-yl) 3-(1-adamantyl)propyl carbonate], for which, in data set [1], the half-life at 1 µM is less than 50 min and the “Formation of EFdA at 30 min” value is reported as “Yes”.
As to `C#C[C@]1(CO)O[C@@H](n2cnc3c(N)nc(F)nc32)C[C@@H]1OC(=O)OCCCCC12CC3CC(CC(C3)C1)C2` [Compound 13, ((2R,3S,5R)-5-(6-amino-2-fluoro-9H-purin-9-yl)-2-ethynyl-2-(hydroxymethyl)tetrahydrofuran-3-yl) 4-(1-adamantyl)butyl carbonate], in data set [1], the half-life at 1 µM was less than 50 min and the “Formation of EFdA at 30 min” value was “Yes”.
Regarding `C#C[C@@]12COC(=O)OCCCOC(=O)O[C@H]1C[C@H](n1cnc3c(N)nc(F)nc31)O2` [Compound 16, (10aR,12R,13aS)-12-(6-amino-2-fluoro-9H-purin-9-yl)-10a-ethynylhexahydro-4H,10H-furo[3,2-d][1,3,7,9]tetraoxacyclododecine-2,8-dione], in data set [2], the “Formation of EFdA at 30 min” value is “Yes”. In data set [2] (plasma), this molecule came in with a half-life at 2 µM of 50 to 200 min.
For `C#C[C@]1(COC(=O)OCC23CC4CC(CC(C4)C2)C3)O[C@@H](n2cnc3c(N)nc(F)nc32)C[C@@H]1OC(=O)C(C)C` [Compound 20, ((2R,3S,5R)-2-(((((1-adamantyl)methoxy)carbonyl)oxy)methyl)-5-(6-amino-2-fluoro-9H-purin-9-yl)-2-ethynyltetrahydrofuran-3-yl) isobutyrate], in data set [1], the half-life at 1 µM was less than 50 min and the “Formation of EFdA at 30 min” value was “Yes”.

The values above are taken from patent publication US11793827B2, “Adenosine derivative and pharmaceutical composition comprising the same” (Brii Biosciences, Inc., priority 2021, dated 2023).
